Experimental findings from US9994587B2, “HIV protease inhibitors” (priority 2014, dated 2018) are described below.

This test concerns the target T1, wildtype HIV-1 protease (Human immunodeficiency virus type 1 group M subtype B, UniProt P04585).
T1 construct: preincubated with the HIV-1 protease (wild type) enzyme in assay buffer; made in house; host or cells: Escherichia coli
The experiment in a line: Assay for inhibition of microbial expressed HIV protease (Pepcleav). It counts as biochemical. The note with it: wild type HIV-1 protease 20 pM, peptide substrate 400 micromolar, pH 5.5; mean of at least two independent experiments. In a few lines:
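E. coli-expressed enzyme preincubated with inhibitor 30 min at room temperature in 50 mM sodium acetate pH 5.5, 100 mM NaCl, 0.1% BSA, then 400 micromolar peptide substrate added with 20 picomolar protease (final), 1 h at 30° C. Product quantified by LC-MS/MS peak area after formic acid/indinavir quench.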
The IC50 is the concentration needed to halve the response being measured. Read a high IC50 as weaker potency. Regarding `COC(=O)N[C@H](C(=O)Nc1ccccc1CC[C@@H]1CNC[C@@H](C(F)(F)Cc2ccc(Br)cc2)O1)C(c1ccccc1)c1ccccc1` [Example 65, N-[2-(2-{(2R,6S)-6-[2-(4-bromophenyl)-1,1-difluoroethyl]morpholin-2-yl}ethyl)phenyl]-Nα-(methoxycarbonyl)-β-phenyl-L-phenylalaninamide], half-maximal inhibition (IC50) was put at 50 nM.

Molecule `COC(=O)N[C@H](C(=O)Nc1ccccc1CC[C@@H]1CNC[C@@H](CSc2ccc(Cl)c(Cl)c2)O1)C(c1ccccc1)c1ccccc1` [Example 19, methyl N-[(1S)-1-benzhydryl-2-[[2-[2-[(2R,6S)-6-[(3,4-dichlorophenyl)sulfanylmethyl]morpholin-2-yl]ethyl]phenyl]amino]-2-oxo-ethyl]carbamate] came in with an IC50 of 8.7 nM.

With `COC(=O)N[C@H](C(=O)Nc1ccccc1CC[C@@H]1CNC[C@@H](COc2ccccc2F)O1)C(c1ccccc1)c1ccccc1` [Example 49, N-[2-(2-{(2R,6S)-6-[(2-fluorophenoxy)methyl]morpholin-2-yl}ethyl)phenyl]-Nα-(methoxycarbonyl)-β-phenyl-L-phenylalaninamide], it took 14 nM to reach half-maximal inhibition (IC50). The figure for `COC(=O)N[C@H](C(=O)Nc1ccccc1CC[C@@H]1CNC[C@@H](CSc2ncnc3c2cnn3C)O1)C(c1ccccc1)c1ccccc1` [Example 36, methyl N-[(1S)-1-benzhydryl-2-[[2-[2-[(2R,6S)-6-[(1-methylpyrazolo[3,4-d]pyrimidin-4-yl)sulfanylmethyl]morpholin-2-yl]ethyl]phenyl]amino]-2-oxo-ethyl]carbamate] is 0.93 nM. As to `COC(=O)N[C@H](C(=O)Nc1nccnc1CC[C@@H]1CNC[C@@H](CSc2ccc(Cl)cc2)O1)C(c1ccccc1)c1ccccc1` [Example 83, methyl N-[(1S)-1-benzhydryl-2-[[3-[2-[(2R,6S)-6-[(4-chlorophenyl)sulfanylmethyl]morpholin-2-yl]ethyl]pyrazin-2-yl]amino]-2-oxo-ethyl]carbamate], the IC50 is 27 nM.

Turning to `COC(=O)N[C@H](C(=O)Nc1cccnc1CC[C@@H]1CNC[C@@H](CSc2ncccc2Cl)O1)C(c1ccccc1)c1ccccc1` [Example 80, N-(2-{2-[(2R,6S)-6-{[(3-chloropyridin-2-yl)sulfanyl]methyl}morpholin-2-yl]ethyl}pyridin-3-yl)-Nα-(methoxycarbonyl)-β-phenyl-L-phenylalaninamide], it took 58 nM to reach half-maximal inhibition (IC50). Take `N[C@H](C(=O)Nc1cncc(F)c1CC[C@@H]1CNC[C@@H](CSc2ccc(Cl)cc2)O1)C(c1ccc(F)cc1)c1ccc(F)cc1` [Example 104, (S)-2-amino-N-(4-(2-((2R,6S)-6-(((4-chlorophenyl)thio)methyl)morpholin-2-yl)ethyl)-5-fluoropyridin-3-yl)-3,3-bis(4-fluorophenyl)propanamide]: 0.28 nM corresponded to half-maximal inhibition (IC50). As for `COC(=O)N[C@H](C(=O)Nc1ccccc1CC[C@@H]1CNC[C@@H](CSc2ccc(Br)cc2)O1)C(c1ccccc1)c1ccccc1` [Example 8, methyl N-[(1S)-1-benzhydryl-2-[[2-[2-[(2R,6S)-6-[(4-bromophenyl)sulfanylmethyl]morpholin-2-yl]ethyl]phenyl]amino]-2-oxo-ethyl]carbamate], the figure is 2.1 nM; as for `COC(=O)N[C@H](C(=O)Nc1ccccc1CC[C@@H]1CNC[C@@H](COc2cccc3ncccc23)O1)C(c1ccccc1)c1ccccc1` [Example 51, methyl [(2S)-1-oxo-3,3-diphenyl-1-{[2-[2-{(2R,6S)-6-[(quinolin-5-yloxy)methyl]morpholin-2-yl}ethyl)phenyl]amino}propan-2-yl]carbamate], 14 nM. As for `COC(=O)N[C@H](C(=O)Nc1ccc(F)cc1CC[C@@H]1CNC[C@@H](COc2cccc(C#N)c2)O1)C(c1ccccc1)c1ccccc1` [Example 74, N-[2-(2-{(2R,6S)-6-[(3-cyanophenoxy)methyl]morpholin-2-yl}ethyl)-4-fluorophenyl]-Nα-(methoxycarbonyl)-β-phenyl-L-phenylalaninamide], the figure is 39 nM; as for `COC(=O)N[C@H](C(=O)NCCCC1CNC[C@@H](CCc2ccc(Cl)cc2)O1)C(c1ccccc1)c1ccccc1` (stereo partly drawn) [Example 107, N-(3-{(6R)-6-[2-(4-chlorophenyl)ethyl]morpholin-2-yl}propyl)-Nα-(methoxycarbonyl)-β-phenyl-L-phenylalaninamide], 1000 nM; as for `COC(=O)N[C@H](C(=O)Nc1ccccc1CC[C@@H]1CNC[C@@H](CSc2nnc(Cn3nccc3C)o2)O1)C(c1ccccc1)c1ccccc1` [Example 33, methyl N-[(1S)-1-benzhydryl-2-[[2-[2-[(2R,6S)-6-[[5-[(5-methylpyrazol-1-yl)methyl]-1,3,4-oxadiazol-2-yl]sulfanylmethyl]morpholin-2-yl]ethyl]phenyl]amino]-2-oxo-ethyl]carbamate], 0.67 nM. On to `COC(=O)N[C@H](C(=O)Nc1ccccc1CC[C@@H]1CNC[C@@H](COc2ccc(S(N)(=O)=O)cc2)O1)C(c1ccccc1)c1ccccc1` [Example 55, N-α-(methoxycarbonyl)-β-phenyl-N-[2-(2-{(2R,6S)-6-[(4-sulfamoylphenoxy)methyl]morpholin-2-yl}ethyl)phenyl]-L-phenylalaninamide], for which the IC50 came to 12 nM. This IC50 lies about 18-fold higher than the previous one. As for `COC(=O)N[C@H](C(=O)Nc1ccccc1CC[C@@H]1CNC[C@@H](COc2ccc(Br)cc2)O1)C(c1ccccc1)c1ccccc1` [Example 9, methyl N-[(1S)-1-benzhydryl-2-[[2-[2-[(2R,6S)-6-[(4-bromophenoxy)methyl]morpholin-2-yl]ethyl]phenyl]amino]-2-oxo-ethyl]carbamate], the figure is 18 nM; as for `COC(=O)N[C@H](C(=O)Nc1ccccc1CC[C@@H]1CNC[C@@H](/C=C/c2ccc(Cl)cc2)O1)C(c1ccccc1)c1ccccc1` [Example 60, N-[2-(2-{(2R,6R)-6-[(E)-2-(4-chlorophenyl)ethenyl]morpholin-2-yl}ethyl)phenyl]-Nα-(methoxycarbonyl)-β-phenyl-L-phenylalaniamide], 19 nM. Consider `COC(=O)N[C@H](C(=O)NCCCCC1CNC[C@@H](CS(=O)(=O)c2ccc(N)cc2)O1)C(c1ccccc1)c1ccccc1` (stereo partly drawn) [Example 1, Methyl N-[(1S)-1-[4-[(6S)-6-[(4-aminophenyl)sulfonylmethyl]morpholin-2-yl]butylcarbamoyl]-2,2-diphenyl-ethyl]carbamate], for which it took 450 nM to reach half-maximal inhibition (IC50). As for `N[C@H](C(=O)Nc1cncc(F)c1CC[C@@H]1CNCC2(CCCCC2)O1)C(c1ccccc1)c1ccccc1` [Example 133, N-(5-fluoro-4-{2-[(2R)-1-oxa-4-azaspiro[5.5]undec-2-yl]ethyl}pyridin-3-yl)-β-phenyl-L-phenylalaninamide], the figure is 290 nM; as for `COC(=O)N[C@H](C(=O)Nc1ccccc1CC[C@@H]1CNC[C@@H](COc2ccc(Br)cc2N)O1)C(c1ccccc1)c1ccccc1` [Example 13, methyl N-[(1S)-1-[[2-[2-[(2R,6S)-6-[(2-amino-4-bromo-phenoxy)methyl]morpholin-2-yl]ethyl]phenyl]carbamoyl]-2,2-diphenyl-ethyl]carbamate], 21 nM. `COC(=O)N[C@H](C(=O)Nc1ccccc1CC[C@@H]1CNC[C@@H](CSc2ccc(Cl)cc2)O1)C(c1ccccc1)c1ccccc1` [Example 7, methyl N-[(1S)-1-benzhydryl-2-[[2-[2-[(2R,6S)-6-[(4-chlorophenyl)sulfanylmethyl]morpholin-2-yl]ethyl]phenyl]amino]-2-oxo-ethyl]carbamate] showed an IC50 of 2 nM. `COC(=O)N[C@H](C(=O)Nc1ccccc1OC[C@@H]1CNC[C@@H](CSc2ccc(Cl)cc2)O1)C(c1ccccc1)c1ccccc1` [Example 58, methyl N-[(1S)-1-benzhydryl-2-[[2-[[(2S,6S)-6-[(4-chlorophenyl)sulfanylmethyl]morpholin-2-yl]methoxy]phenyl]amino]-2-oxo-ethyl]carbamate] had an IC50 of 8.1 nM. For `COC(=O)N[C@H](C(=O)Nc1ccccc1CC[C@@H]1CNC[C@@H](COc2cccc3nn[nH]c23)O1)C(c1ccccc1)c1ccccc1` [Example 40, N-[2-(2-{(2R,6S)-6-[(1H-benzotriazol-7-yloxy)methyl]morpholin-2-yl}ethyl)phenyl]-Na-(methoxycarbonyl)-b-phenyl-L-phenylalaninamide], inhibition was half-maximal at 68 nM (IC50). The molecule `COC(=O)N[C@H](C(=O)Nc1ccccc1CCC1CNC[C@@H](CSc2ccc(Cl)cc2)O1)C(c1ccccc1)c1ccccc1` (stereo partly drawn) [Example 6, methyl N-[(1S)-1-benzhydryl-2-[[2-[2-[(6S)-6-[(4-chlorophenyl)sulfanylmethyl]morpholin-2-yl]ethyl]phenyl]amino]-2-oxo-ethyl]carbamate] gave an IC50 of 1.9 nM. Against the preceding molecule, the IC50 is about 36-fold lower. Molecule `COC(=O)N[C@H](C(=O)Nc1ccc(F)cc1CC[C@@H]1CNC[C@@H](COc2ccc(C#N)cc2)O1)C(c1ccccc1)c1ccccc1` [Example 75, N-[2-(2-{(2R,6S)-6-[(4-cyanophenoxy)methyl]morpholin-2-yl}ethyl)-4-fluorophenyl]-Nα-(methoxycarbonyl)-β-phenyl-L-phenylalaninamide] registered an IC50 of 46 nM.

For `N[C@H](C(=O)Nc1cncc(F)c1CC[C@@H]1CNC[C@@H](COC(=O)NCCc2ccccc2)O1)C(c1ccc(F)cc1)c1ccc(F)cc1` [Example 130, 4-fluoro-β-(4-fluorophenyl)-N-(5-fluoro-4-{2-[(2R,6S)-6-({[(2-phenylethyl)carbamoyl]oxy}methyl)morpholin-2-yl]ethyl}pyridin-3-yl)-L-phenylalaninamide], 8.8 nM corresponded to half-maximal inhibition (IC50).

Molecule `N[C@H](C(=O)Nc1cncc(F)c1CC[C@@H]1CNC[C@@H](COC(=O)N2CCOCC2)O1)C(c1ccc(F)cc1)c1ccc(F)cc1` [Example 105, {(2S,6R)-6-[2-(3-fluoro-5-{[4-fluoro-β-(4-fluorophenyl)-L-phenylalanyl]amino}pyridin-4-yl)ethyl]morpholin-2-yl}methyl morpholine-4-carboxylate] showed an IC50 of 29 nM.
